Test system: HUVEC/MSC spheroids viability
Assay: Human HUVEC/MSC cell line growth inhibition [KRAS2];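 for viability, T/C: percent of DMSO vehicle control luminescence so 100% = untreated viability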
Settings: for IC50: curve of first compound; for viability, T/C: stronger effect = lower value
Procedure, shortened: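 Spheroids of pooled-donor HUVEC and hMSC (passage ≤5) without tumour cells were treated with KRAS-pathway inhibitors alone and combined with targeted agents. Top concentration was at or near clinical Cmax, or 10 microM when Cmax was unknown, descending in half-log steps.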

[1] = second compound 0.0316 µM, first compound 0.0316 µM
[2] = second compound 0.0316 µM, first compound 0.1 µM
[3] = second compound 0.0316 µM, first compound 0.316 µM
[4] = second compound 0.0316 µM, first compound 1 µM
[5] = second compound 0.0316 µM, first compound 3.16 µM
[6] = second compound 0.0316 µM, first compound 10 µM
[7] = second compound 0.1 µM, first compound 0.0316 µM
[8] = second compound 0.1 µM, first compound 0.1 µM
[9] = second compound 0.1 µM, first compound 0.316 µM
[10] = second compound 0.1 µM, first compound 1 µM
[11] = second compound 0.1 µM, first compound 3.16 µM
[12] = second compound 0.1 µM, first compound 10 µM
[13] = second compound 0.316 µM, first compound 0.0316 µM
[14] = second compound 0.316 µM, first compound 0.1 µM
[15] = second compound 0.316 µM, first compound 0.316 µM
[16] = second compound 0.316 µM, first compound 1 µM
[17] = second compound 0.316 µM, first compound 3.16 µM
[18] = second compound 0.316 µM, first compound 10 µM
[19] = second compound 1 µM, first compound 0.0316 µM
[20] = second compound 1 µM, first compound 0.1 µM
[21] = second compound 1 µM, first compound 0.316 µM
[22] = second compound 1 µM, first compound 1 µM
[23] = second compound 1 µM, first compound 3.16 µM
[24] = second compound 1 µM, first compound 10 µM
[25] = second compound 3.16 µM, first compound 0.0316 µM
[26] = second compound 3.16 µM, first compound 0.1 µM
[27] = second compound 3.16 µM, first compound 0.316 µM
[28] = second compound 3.16 µM, first compound 1 µM
[29] = second compound 3.16 µM, first compound 3.16 µM
[30] = second compound 3.16 µM, first compound 10 µM
[31] = second compound 10 µM, first compound 0.0316 µM
[32] = second compound 10 µM, first compound 0.1 µM
[33] = second compound 10 µM, first compound 0.316 µM
[34] = second compound 10 µM, first compound 1 µM
[35] = second compound 10 µM, first compound 3.16 µM
[36] = second compound 10 µM, first compound 10 µM

Compound: CC(C)NCC(C(=O)N1CCN(c2ncnc3c2C(C)CC3O)CC1)c1ccc(Cl)cc1 (stereo unspecified) + CNCc1ccccc1-c1csc(C(C)Nc2nc(C)nc3cc(OC)c(OC)cc23)c1
- IC50 (second compound 0.0316 µM): > 10 µM
- IC50 (second compound 0.1 µM): > 10 µM
- IC50 (second compound 0.316 µM): > 10 µM
- IC50 (second compound 1 µM): > 10 µM
- IC50 (second compound 3.16 µM): > 10 µM
- IC50 (second compound 10 µM): < 0.0316 µM
- viability, T/C [1]: 95.5%
- viability, T/C [2]: 108%
- viability, T/C [3]: 98.5%
- viability, T/C [4]: 70.2%
- viability, T/C [5]: 69%
- viability, T/C [6]: 64.2%
- viability, T/C [7]: 94.8%
- viability, T/C [8]: 97.8%
- viability, T/C [9]: 75.6%
- viability, T/C [10]: 70.4%
- viability, T/C [11]: 58.1%
- viability, T/C [12]: 54.1%
- viability, T/C [13]: 82.2%
- viability, T/C [14]: 106%
- viability, T/C [15]: 83.3%
- viability, T/C [16]: 73.5%
- viability, T/C [17]: 56.2%
- viability, T/C [18]: 50.8%
- viability, T/C [19]: 84.6%
- viability, T/C [20]: 106%
- viability, T/C [21]: 103%
- viability, T/C [22]: 71.3%
- viability, T/C [23]: 56.5%
- viability, T/C [24]: 51.6%
- viability, T/C [25]: 108%
- viability, T/C [26]: 93.2%
- viability, T/C [27]: 89.4%
- viability, T/C [28]: 79.5%
- viability, T/C [29]: 62.5%
- viability, T/C [30]: 57.7%
- viability, T/C [31]: 0.38%
- viability, T/C [32]: 0.44%
- viability, T/C [33]: 0.45%
- viability, T/C [34]: 0.42%
- viability, T/C [35]: 0.39%
- viability, T/C [36]: 0.26%

Compound: CCN1CCN(Cc2ccc(Nc3ncc(F)c(-c4cc(F)c5nc(C)n(C(C)C)c5c4)n3)nc2)CC1 + CNCc1ccccc1-c1csc(C(C)Nc2nc(C)nc3cc(OC)c(OC)cc23)c1
- IC50 (second compound 0.0316 µM): > 1 µM
- IC50 (second compound 0.1 µM): > 1 µM
- IC50 (second compound 0.316 µM): > 1 µM
- IC50 (second compound 1 µM): > 1 µM
- IC50 (second compound 3.16 µM): 0.563 µM
- IC50 (second compound 10 µM): < 0.00316 µM
- viability, T/C (second compound 0.0316 µM, first compound 0.00316 µM): 100%
- viability, T/C (second compound 0.0316 µM, first compound 0.01 µM): 93.7%
- viability, T/C [1]: 68.7%
- viability, T/C [2]: 96.5%
- viability, T/C [3]: 107%
- viability, T/C [4]: 140%
- viability, T/C (second compound 0.1 µM, first compound 0.00316 µM): 91%
- viability, T/C (second compound 0.1 µM, first compound 0.01 µM): 96.2%
- viability, T/C [7]: 83%
- viability, T/C [8]: 85.6%
- viability, T/C [9]: 107%
- viability, T/C [10]: 155%
- viability, T/C (second compound 0.316 µM, first compound 0.00316 µM): 78.2%
- viability, T/C (second compound 0.316 µM, first compound 0.01 µM): 97.7%
- viability, T/C [13]: 79.5%
- viability, T/C [14]: 92.7%
- viability, T/C [15]: 102%
- viability, T/C [16]: 113%
- viability, T/C (second compound 1 µM, first compound 0.00316 µM): 54.9%
- viability, T/C (second compound 1 µM, first compound 0.01 µM): 90.8%
- viability, T/C [19]: 91.8%
- viability, T/C [20]: 81.4%
- viability, T/C [21]: 114%
- viability, T/C [22]: 119%
- viability, T/C (second compound 3.16 µM, first compound 0.00316 µM): 83.8%
- viability, T/C (second compound 3.16 µM, first compound 0.01 µM): 103%
- viability, T/C [25]: 95.5%
- viability, T/C [26]: 92.8%
- viability, T/C [27]: 123%
- viability, T/C [28]: 0.46%
- viability, T/C (second compound 10 µM, first compound 0.00316 µM): 0.4%
- viability, T/C (second compound 10 µM, first compound 0.01 µM): 0.42%
- viability, T/C [31]: 0.47%
- viability, T/C [32]: 0.41%
- viability, T/C [33]: 0.39%
- viability, T/C [34]: 0.31%

Compound: CCNC(=O)CC1N=C(c2ccc(Cl)cc2)c2cc(OC)ccc2-n2c(C)nnc21 (stereo unspecified) + CNCc1ccccc1-c1csc(C(C)Nc2nc(C)nc3cc(OC)c(OC)cc23)c1
- IC50 (second compound 0.0316 µM): > 10 µM
- IC50 (second compound 0.1 µM): > 10 µM
- IC50 (second compound 0.316 µM): > 10 µM
- IC50 (second compound 1 µM): > 10 µM
- IC50 (second compound 3.16 µM): > 10 µM
- IC50 (second compound 10 µM): < 0.0316 µM
- viability, T/C [1]: 89.8%
- viability, T/C [2]: 96.4%
- viability, T/C [3]: 88%
- viability, T/C [4]: 106%
- viability, T/C [5]: 114%
- viability, T/C [6]: 115%
- viability, T/C [7]: 96.8%
- viability, T/C [8]: 91.3%
- viability, T/C [9]: 109%
- viability, T/C [10]: 92.6%
- viability, T/C [11]: 120%
- viability, T/C [12]: 122%
- viability, T/C [13]: 75.2%
- viability, T/C [14]: 86.6%
- viability, T/C [15]: 91.3%
- viability, T/C [16]: 109%
- viability, T/C [17]: 94.1%
- viability, T/C [18]: 93.7%
- viability, T/C [19]: 69.5%
- viability, T/C [20]: 105%
- viability, T/C [21]: 98.5%
- viability, T/C [22]: 99.4%
- viability, T/C [23]: 127%
- viability, T/C [24]: 99.1%
- viability, T/C [25]: 86.8%
- viability, T/C [26]: 93.6%
- viability, T/C [27]: 117%
- viability, T/C [28]: 97.3%
- viability, T/C [29]: 108%
- viability, T/C [30]: 114%
- viability, T/C [31]: 0.39%
- viability, T/C [32]: 0.34%
- viability, T/C [33]: 0.4%
- viability, T/C [34]: 0.52%
- viability, T/C [35]: 0.39%
- viability, T/C [36]: 0.43%
